In US12187701B2, “Taire family kinase inhibitors and uses thereof” (Dana-Farber Cancer Institute, Inc., priority 2018, dated 2025):
Where two headings read alike, the source gives them in different places.

Legend:
Cdk14/CycY = Cdk14/CycY (Homo sapiens (Human), UniProt O94921); assay: Lanthascreen Eu kinase binding assay for Cdk14/CycY with 30 minute pre-incubation; conditions: 30 minute pre-incubation of kinase with compound; read-out: IC50 CDK14 binding by Lanthascreen
Procedure: Lanthascreen Eu kinase binding assays were conducted for Cdk14/CycY largely as performed in the commercial assay service by Life Technologies, but included a 30 minute pre-incubation step of the kinase with candidate compounds to facilitate covalent bond formation.

HCT116 cells = assay: Antiproliferation assay, Cell Titer Glo, 72 hours; assay type: cell-based
Procedure: HCT116 cells were plated in 384-well plates at 750 cells/well in 50 ul fresh media (McCoy's 5A+10% FBS+1% Penn/Strep) and treated with 0.1 μl candidate compounds in four-fold dilution series using the Janus pinner. Cells were incubated with compounds for 72 hours in 37° C. 5% CO2. Anti-proliferative effects of these compounds were assessed 72 hours after compound addition using Cell Titer Glo (Promega cat #G7571) as described in product manual by luminescence measurements using an Envision platereader. All proliferation assays were performed in biological quadruplicate. IC50 values were determined using a non-linear regression curve fit in GraphPad Prism 6.

Sequence of Cdk14/CycY (O94921 whole entry): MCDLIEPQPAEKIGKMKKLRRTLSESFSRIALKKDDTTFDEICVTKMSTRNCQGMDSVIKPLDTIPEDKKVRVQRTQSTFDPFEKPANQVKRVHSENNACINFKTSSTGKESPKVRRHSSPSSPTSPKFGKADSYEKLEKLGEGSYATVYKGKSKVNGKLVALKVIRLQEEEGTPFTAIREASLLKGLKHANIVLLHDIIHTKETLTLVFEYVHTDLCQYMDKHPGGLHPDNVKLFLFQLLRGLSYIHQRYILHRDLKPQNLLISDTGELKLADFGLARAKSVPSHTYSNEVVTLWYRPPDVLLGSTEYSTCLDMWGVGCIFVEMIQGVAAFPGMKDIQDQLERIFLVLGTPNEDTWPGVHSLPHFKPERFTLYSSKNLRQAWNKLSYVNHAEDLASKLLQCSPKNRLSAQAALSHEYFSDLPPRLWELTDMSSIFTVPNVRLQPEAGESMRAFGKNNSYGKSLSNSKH
Sequence of Cdk14/CycY (Q8ND76 whole entry partner): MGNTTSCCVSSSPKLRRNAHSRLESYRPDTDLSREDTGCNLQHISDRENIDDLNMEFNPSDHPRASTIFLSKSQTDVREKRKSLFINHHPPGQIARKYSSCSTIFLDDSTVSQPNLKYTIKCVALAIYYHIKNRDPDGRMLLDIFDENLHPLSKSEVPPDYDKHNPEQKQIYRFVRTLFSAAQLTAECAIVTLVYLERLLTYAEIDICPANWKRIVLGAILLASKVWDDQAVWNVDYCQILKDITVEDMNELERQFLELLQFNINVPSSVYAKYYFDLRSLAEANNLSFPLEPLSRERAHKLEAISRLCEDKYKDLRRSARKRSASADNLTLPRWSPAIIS

Compound | IC50 (Cdk14/CycY) [nM] | IC50 (HCT116 cells) [nM] | IC50 (HCT116 cells; Homo sapiens, HCT-116, 72 h) [nM]
C=CC(=O)Nc1cccc(N2CCC(NC(=O)c3n[nH]cc3NC(=O)c3c(Cl)cccc3Cl)C2)c1 (stereo in doubt) [FMF-05-086-1, (S)—N-(1-(3-acrylamidophenyl)pyrrolidin-3-yl)-4-(2,6-dichlorobenzamido)-1H-pyrazole-3-carboxamide] | 1100 | 826 | 
C=CC(=O)N1CCC(NC(=O)c2n[nH]cc2NC(=O)c2c(Cl)cccc2Cl)CC1 [FMF-03-177-1, N-(1-acryloylpiperidin-4-yl)-4-(2,6-dichlorobenzamido)-1H-pyrazole-3-carboxamide] | 401 |  | 341
CN(C)C/C=C/C(=O)N1CCC(NC(=O)c2n[nH]cc2NC(=O)c2c(Cl)cccc2Cl)CC1 [FMF-03-177-2, (E)-4-(2,6-dichlorobenzamido)-N-(1-(4-(dimethylamino)but-2-enoyl)piperidin-4-yl)-1H-pyrazole-3-carboxamide] | 208 |  | 1060
C=CC(=O)Nc1ccc(NC(=O)c2n[nH]cc2NC(=O)c2c(Cl)cccc2Cl)cc1 [FMF-03-182-1, N-(4-acrylamidophenyl)-4-(2,6-dichlorobenzamido)-1H-pyrazole-3-carboxamide] | > 1000 |  | 17
CN(C)C/C=C/C(=O)Nc1ccc(NC(=O)c2n[nH]cc2NC(=O)c2c(Cl)cccc2Cl)cc1 [FMF-03-182-2, (E)-4-(2,6-dichlorobenzamido)-N-(4-(4-(dimethylamino)but-2-enamido)phenyl)-1H-pyrazole-3-carboxamide] | 82 |  | 395
C=CC(=O)N1CCC[C@@H](NC(=O)c2n[nH]cc2NC(=O)c2c(Cl)cccc2Cl)C1 [FMF-03-183-1, (R)—N-(1-acryloylpiperidin-3-yl)-4-(2,6-dichlorobenzamido)-1H-pyrazole-3-carboxamide] | 569 |  | 39
CN(C)C/C=C/C(=O)N1CCC[C@@H](NC(=O)c2n[nH]cc2NC(=O)c2c(Cl)cccc2Cl)C1 [FMF-03-183-2, (R,E)-4-(2,6-dichlorobenzamido)-N-(1-(4-(dimethylamino)but-2-enoyl)piperidin-3-yl)-1H-pyrazole-3-carboxamide] | 148 |  | 157
C=CC(=O)N1CCC[C@H](NC(=O)c2n[nH]cc2NC(=O)c2c(Cl)cccc2Cl)C1 [FMF-03-184-1, (S)—N-(1-acryloylpiperidin-3-yl)-4-(2,6-dichlorobenzamido)-1H-pyrazole-3-carboxamide] | 479 |  | 737
CN(C)C/C=C/C(=O)N1CCC[C@H](NC(=O)c2n[nH]cc2NC(=O)c2c(Cl)cccc2Cl)C1 [FMF-03-184-2, (S,E)-4-(2,6-dichlorobenzamido)-N-(1-(4-(dimethylamino)but-2-enoyl)piperidin-3-yl)-1H-pyrazole-3-carboxamide] | 976 |  | 1340
C=CC(=O)Nc1ccc(C(=O)N2CCC(NC(=O)c3n[nH]cc3NC(=O)c3c(Cl)cccc3Cl)CC2)cc1 [FMF-03-186-1, N-(1-(4-acrylamidobenzoyl)piperidin-4-yl)-4-(2,6-dichlorobenzamido)-1H-pyrazole-3-carboxamide] | 126 |  | 42
CN(C)C/C=C/C(=O)Nc1ccc(C(=O)N2CCC(NC(=O)c3n[nH]cc3NC(=O)c3c(Cl)cccc3Cl)CC2)cc1 [FMF-03-187-1, (E)-4-(2,6-dichlorobenzamido)-N-(1-(4-(4-(dimethylamino)but-2-enamido)benzoyl)piperidin-4-yl)-1H-pyrazole-3-carboxamide] | 82 |  | 71
C=CC(=O)Nc1cccc(NC(=O)c2n[nH]cc2NC(=O)c2c(Cl)cccc2Cl)c1 [FMF-03-188-1, N-(3-acrylamidophenyl)-4-(2,6-dichlorobenzamido)-1H-pyrazole-3-carboxamide] | > 1000 |  | 169
CN(C)C/C=C/C(=O)Nc1cccc(NC(=O)c2n[nH]cc2NC(=O)c2c(Cl)cccc2Cl)c1 [FMF-03-188-2, (E)-4-(2,6-dichlorobenzamido)-N-(3-(4-(dimethylamino)but-2-enamido)phenyl)-1H-pyrazole-3-carboxamide] | 88 |  | 723
CN(C)C/C=C/C(=O)Nc1cccc(C(=O)N2CCC(NC(=O)c3n[nH]cc3NC(=O)c3c(Cl)cccc3Cl)CC2)c1 [FMF-03-196-2, (E)-4-(2,6-dichlorobenzamido)-N-(1-(3-(4-(dimethylamino)but-2-enamido)benzoyl)piperidin-4-yl)-1H-pyrazole-3-carboxamide] | 77 |  | 485
C=CC(=O)Nc1ccc(S(=O)(=O)N2CCC(NC(=O)c3n[nH]cc3NC(=O)c3c(Cl)cccc3Cl)CC2)cc1 [FMF-03-197-1, N-(1-((4-acrylamidophenyl)sulfonyl)piperidin-4-yl)-4-(2,6-dichlorobenzamido)-1H-pyrazole-3-carboxamide] | 62 |  | 31
C=CC(=O)Nc1ccc(CN2CCC(NC(=O)c3n[nH]cc3NC(=O)c3c(Cl)cccc3Cl)CC2)cc1 [FMF-03-199-1, N-(1-(4-acrylamidobenzyl)piperidin-4-yl)-4-(2,6-dichlorobenzamido)-1H-pyrazole-3-carboxamide] | 10 |  | < 0.1
C=CC(=O)Nc1cccc(CN2CCC(NC(=O)c3n[nH]cc3NC(=O)c3c(Cl)cccc3Cl)CC2)c1 [FMF-03-200-1, N-(1-(3-acrylamidobenzyl)piperidin-4-yl)-4-(2,6-dichlorobenzamido)-1H-pyrazole-3-carboxamide] |  |  | 0.9
CN(C)C/C=C/C(=O)Nc1ccc(S(=O)(=O)N2CCC[C@@H](NC(=O)c3n[nH]cc3NC(=O)c3c(Cl)cccc3Cl)C2)cc1 [FMF-04-056-2, (R,E)-4-(2,6-dichlorobenzamido)-N-(1-((4-(4-(dimethylamino)but-2-enamido)phenyl)sulfonyl)piperidin-3-yl)-1H-pyrazole-3-carboxamide] |  |  | > 10000
C=CC(=O)Nc1cccc(C(=O)Nc2ccc(NC(=O)c3n[nH]cc3NC(=O)c3c(Cl)cccc3Cl)c(C)c2)c1 [FMF-04-085-1, N-(4-(3-acrylamidobenzamido)-2-methylphenyl)-4-(2,6-dichlorobenzamido)-1H-pyrazole-3-carboxamide] | > 1000 |  | 
C=CC(=O)Nc1cccc(S(=O)(=O)N2CCC(NC(=O)c3n[nH]cc3NC(=O)c3c(Cl)cccc3OC)CC2)c1 [FMF-04-107-1, N-(1-((3-acrylamidophenyl)sulfonyl)piperidin-4-yl)-4-(2-chloro-6-methoxybenzamido)-1H-pyrazole-3-carboxamide] |  |  | 115
CN(/C=C/C(=O)Nc1cccc(CN2CCC(NC(=O)c3n[nH]cc3NC(=O)c3c(Cl)cccc3Cl)CC2)c1)CCCCC1C[C@@H]2NC(=O)N[C@@H]2S1 (some centres unmarked) [FMF-04-131-1] | 49 |  | 
CN(C/C=C/C(=O)Nc1cccc(S(=O)(=O)N2CCC(NC(=O)c3n[nH]cc3NC(=O)c3c(Cl)cccc3Cl)CC2)c1)CCC(=O)NCCOCCOCCOCCNC(=O)CCCC[C@@H]1SC[C@@H]2NC(=O)N[C@@H]21 [FMF-04-153-1, 4-(2,6-dichlorobenzamido)-N-(1-((3-((E)-5-methyl-8,22-dioxo-26-((3aS,4S,6aR)-2-oxohexahydro-1H-thieno[3,4-d]imidazol-4-yl)-12,15,18-trioxa-5,9,21-triazahexacos-2-enamido)phenyl)sulfonyl)piperidin-4-yl)-1H-pyrazole-3-carboxamide] | 8 |  | 
CN(C)C/C=C/C(=O)Nc1cccc(CN2CCC(NC(=O)c3n[nH]cc3NC(=O)c3c(Cl)cc(Cl)cc3Cl)CC2)c1 [FMF-04-158-2, (E)-N-(1-(3-(4-(dimethylamino)but-2-enamido)benzyl)piperidin-4-yl)-4-(2,4,6-trichlorobenzamido)-1H-pyrazole-3-carboxamide] |  |  | 156
C=CC(=O)Nc1cccc(S(=O)(=O)N2CCC(NC(=O)c3nn(C)cc3NC(=O)c3c(Cl)cccc3Cl)CC2)c1 [FMF-04-180-1, N-(1-((3-acrylamidophenyl)sulfonyl)piperidin-4-yl)-4-(2,6-dichlorobenzamido)-1-methyl-1H-pyrazole-3-carboxamide] |  |  | 9000
CN(C)C/C=C/C(=O)Nc1cccc(S(=O)(=O)N2CCC(NC(=O)c3nn(C)cc3NC(=O)c3c(Cl)cccc3Cl)CC2)c1 [FMF-04-180-2, (E)-4-(2,6-dichlorobenzamido)-N-(1-((3-(4-(dimethylamino)but-2-enamido)phenyl)sulfonyl)piperidin-4-yl)-1-methyl-1H-pyrazole-3-carboxamide] |  |  | > 10000
COc1cccc(Cl)c1C(=O)Nc1c[nH]nc1C(=O)NC1CCN(S(=O)(=O)c2cccc(NC(=O)/C=C/CN(C)CCC(=O)NCCOCCOCCOCCNC(=O)CCCCC[C@H]3NC(=O)N[C@H]3C)c2)CC1 [FMF-05-035-1, 4-(2-chloro-6-methoxybenzamido)-N-(1-((3-((E)-5-methyl-27-((4R,5S)—5-methyl-2-oxoimidazolidin-4-yl)-8,22-dioxo-12,15,18-trioxa-5,9,21-triazaheptacos-2-enamido)phenyl)sulfonyl)piperidin-4-yl)-1H-pyrazole-3-carboxamide] | 46 |  | 
CN(C)C/C=C/C(=O)Nc1cccc(CNC(=O)c2n[nH]cc2NC(=O)c2c(Cl)cccc2Cl)c1 [FMF-05-067-2, (E)-4-(2,6-dichlorobenzamido)-N-(3-(4-(dimethylamino)but-2-enamido)benzyl)-1H-pyrazole-3-carboxamide] |  |  | > 10000
C=CC(=O)Nc1cccc(N2CCC(NC(=O)c3n[nH]cc3NC(=O)c3c(Cl)cccc3Cl)CC2)c1 [FMF-05-085-1, N-(1-(3-acrylamidophenyl)piperidin-4-yl)-4-(2,6-dichlorobenzamido)-1H-pyrazole-3-carboxamide] |  |  | 93
